Laboratory results taken from patent US12679878B2, “CRF2 receptor agonists and their use in therapy” (SANOFI, priority 2020, dated 2026).
Starred links: 1 amine or outer side, 2 acyl side, 3 side chain; linkers in the order of their positions; H or OH if unused. Non-standard residues stand in square brackets, D forms with d. Residues, ends and D or L forms follow the SMILES beside them. Groups on a side chain read outwards from the residue. *: point of attachment. γGlu = O=C(O)[C@H](CCC(=O)[*:2])N[*:1]; Palmitoyl = CCCCCCCCCCCCCCCC(=O)*; Aib = CC(C)(N)C(=O)O

Target: T1, human CRF2α receptor (Homo sapiens, UniProt Q13324)
T1 construct: expressed in transfected cells; host or cells: TeloHEAC
T1 sequence (Q13324 1-411): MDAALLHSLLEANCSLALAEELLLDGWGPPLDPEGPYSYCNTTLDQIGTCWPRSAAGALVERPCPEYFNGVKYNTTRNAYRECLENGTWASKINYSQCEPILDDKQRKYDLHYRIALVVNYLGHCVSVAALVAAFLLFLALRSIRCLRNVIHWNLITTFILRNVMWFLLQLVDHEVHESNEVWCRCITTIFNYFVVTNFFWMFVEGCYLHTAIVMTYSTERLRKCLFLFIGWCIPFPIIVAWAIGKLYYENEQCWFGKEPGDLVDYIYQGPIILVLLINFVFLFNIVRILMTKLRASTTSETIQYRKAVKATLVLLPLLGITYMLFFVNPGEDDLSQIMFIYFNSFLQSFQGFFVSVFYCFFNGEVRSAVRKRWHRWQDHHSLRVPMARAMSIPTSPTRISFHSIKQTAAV
Experiment: cAMP agonism at human CRF2α receptor in TeloHEAC cells, FA modified peptides (Example 19.9)
Format: cell-based
Details: 0% HSA, relative to urocortin 2
Description: Agonism of compounds for human corticotropin-releasing factor 2α (CRF2α receptor) was determined by a functional assay measuring cAMP modulation upon treatment of TeloHEAC cells stably expressing human CRF2α receptor.
Compounds were dissolved at 0.5 mM in 100% DMSO and serially diluted (1:2) in 100% DMSO for 16 dilutions. 20 nL of each dilution was then transferred to 384-well assay plate using an acoustic droplet ejection instrument. 5 μL of compound buffer (1×HBSS; 20 mM HEPES, 2 mM IBMX, 0% or 0.2% HSA) were then added to each well.
Prior to use, frozen cells were thawed quickly at 37° C. and washed (5 min at 900 rpm) with 20 mL cell buffer (1×HBSS; 20 mM HEPES). Cells were resuspended in cell buffer and adjusted to a cell density of 800.000 cells/ml.
5 μL cells (final dell density: 4000 cells/well) were dispensed in the compound-containing 384-well assay plate and incubated for 30 minutes 37° C.
The CAMP level in treated cells was determined using the Cisbio 62AM4PEC kit according to manufacturer's instruction. Finally, plates were incubated for 1 h at room temperature before measuring the fluorescence ratio between 665/620 nm.
The percent activity value (E %) was calculated by setting 100 nM of urocortin 2 (UCN2) as 100%. The in vitro potency of the compounds was quantified by determining the concentrations that caused 50% activation of maximal response (EC50) relative to urocortin 2.

Compound: CCCCCCCCCCCCCCCC(=O)N[C@@H](CCC(=O)NCCCC[C@H](NC(=O)[C@H](CC(C)C)NC(=O)[C@H](CCCCN)NC(=O)[C@@H](NC(=O)[C@@H]1CCCN1C(=O)[C@H](NC(=O)[C@H](CC(=O)O)NC(=O)[C@H](CC(C)C)NC(=O)[C@H](CO)NC(=O)[C@H](CC(C)C)NC(=O)[C@@H](NC(=O)[C@@H](N)[C@@H](C)CC)C(C)C)C(C)C)[C@@H](C)CC)C(=O)N[C@@H](CCC(N)=O)C(=O)N[C@H](C(=O)N[C@@H](CC(C)C)C(=O)N[C@@H](CC(C)C)C(=O)N[C@@H](CCCCN)C(=O)N[C@@H](CCC(N)=O)C(=O)N[C@@H](CCC(=O)O)C(=O)N[C@@H](CCCNC(=N)N)C(=O)N[C@@H](CCC(N)=O)C(=O)N[C@@H](CCCCN)C(=O)N[C@@H](CCCCN)C(=O)N[C@@H](CCC(N)=O)C(=O)N[C@@H](CCCNC(=N)N)C(=O)N[C@@H](CCC(=O)O)C(=O)N[C@@H](CCCCN)C(=O)N[C@@H](C)C(=O)N[C@@H](CCC(=O)O)C(=O)N[C@@H](CCCCN)C(=O)N[C@@H](CC(N)=O)C(=O)N[C@@H](CCCCN)C(=O)N[C@@H](CCC(N)=O)C(=O)N[C@H](C(=O)N[C@@H](CC(C)C)C(=O)N[C@@H](C)C(=O)N[C@@H](CCC(N)=O)C(=O)N[C@H](C(N)=O)C(C)C)[C@@H](C)CC)[C@@H](C)CC)C(=O)O [compound 213] (H-IVLSLD[dV]PIKLK([γGlu-Palmitoyl])QILLKQERQKKQREKAEKNKQILAQV-NH2)
- EC50: 4.48 nM

Compound: CCCCCCCCCCCCCCCC(=O)N[C@@H](CCC(=O)NCCCC[C@H](NC(=O)[C@H](CC(C)C)NC(=O)CNC(=O)[C@@H](NC(=O)[C@@H]1CCCN1C(=O)[C@H](NC(=O)[C@H](CC(=O)O)NC(=O)[C@H](CC(C)C)NC(=O)[C@H](CO)NC(=O)[C@H](CC(C)C)NC(=O)[C@@H](NC(=O)[C@@H](N)[C@@H](C)CC)C(C)C)C(C)C)[C@@H](C)CC)C(=O)N[C@@H](CCC(N)=O)C(=O)N[C@H](C(=O)N[C@@H](CC(C)C)C(=O)N[C@@H](CC(C)C)C(=O)N[C@@H](CCCCN)C(=O)N[C@@H](CCC(N)=O)C(=O)N[C@@H](CCC(=O)O)C(=O)N[C@@H](CCCNC(=N)N)C(=O)N[C@@H](CCC(N)=O)C(=O)N[C@@H](CCCCN)C(=O)N[C@@H](CCCCN)C(=O)NC(C)(C)C(=O)N[C@@H](CCCNC(=N)N)C(=O)N[C@@H](CCC(=O)O)C(=O)N[C@@H](CCC(N)=O)C(=O)N[C@@H](C)C(=O)N[C@@H](CCC(=O)O)C(=O)N[C@H](C(=O)N[C@@H](CC(N)=O)C(=O)N[C@@H](CCCCN)C(=O)N[C@@H](CCC(N)=O)C(=O)N[C@H](C(=O)N[C@@H](CC(C)C)C(=O)N[C@@H](C)C(=O)N[C@@H](CCC(N)=O)C(=O)N[C@H](C(N)=O)C(C)C)[C@@H](C)CC)[C@@H](C)O)[C@@H](C)CC)C(=O)O [compound 215] (H-IVLSLD[dV]PIGLK([γGlu-Palmitoyl])QILLKQERQKK[Aib]REQAETNKQILAQV-NH2; N-terminus assumed)
- EC50: 0.15 nM
